From the supplement of paper PMC10627819

Tests used:
[1] = system: B. subtilis 168; assay: fitness (endpoint OD595 vs no drug) (fraction); higher = more growth
Outline: (§1)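 With the first reading as background, OD595 was measured every 30 min for 14 h in 384-well plates kept at 37 °C and inoculated at OD595 0.01. TSB, LB Lennox or CY was the medium. Fitness is the optical density at the transition into stationary phase divided by the robust mean of no-drug control wells, with a cap of 1.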

[2] = system: S. pneumoniae D39V; assay: as above
Outline: as §1
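Note: OD595 on entry to stationary phase over no-drug wells; at most 1.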

N[C@@H]1CONC1=O [Cycloserine D] + CCC(C)C1C(=O)NC(=C)C(=O)NC(C(=O)NC(CSCC(C(=O)N1)NC(=O)/C(=C/C)/NC(=O)C(C(C)CC)N)C(=O)NC2C(SCC(NC(=O)CNC(=O)C3CCCN3C2=O)C(=O)NC(CCCCN)C(=O)NC4C(SCC(NC(=O)CNC(=O)C(NC(=O)C(NC(=O)C(NC(=O)CNC4=O)C)CC(C)C)CCSC)C(=O)NC(CC(=O)N)C(=O)NC(CCSC)C(=O)NC(CCCCN)C(=O)NC5C(SCC6C(=O)NC(C(=O)NC(CSC(C(C(=O)N6)NC(=O)C(NC5=O)C)C)C(=O)NC(CO)C(=O)NC(C(C)CC)C(=O)NC(CC7=CN=CN7)C(=O)NC(C(C)C)C(=O)NC(=C)C(=O)NC(CCCCN)C(=O)O)CC8=CN=CN8)C)C)C)CC(C)C [Nisin]
fitness, [1], main component drawn
Conditions	first compound 0.125 µg/mL	first compound 0.25 µg/mL	first compound 0.5 µg/mL
partner 0.5 µg/mL	0.926	0.867	0.878
partner 1 µg/mL	0.888	0.824	0.81
partner 2 µg/mL	0.589	0.601	0.606

fitness, [1], one replicate, main component drawn
Conditions	partner 1.25 µg/mL	partner 1.6 µg/mL	partner 2.5 µg/mL	partner 3.2 µg/mL	partner 4 µg/mL	partner 5 µg/mL	partner 6.4 µg/mL	partner 8 µg/mL	partner 16 µg/mL
first compound 0.125 µg/mL	≥ 1	0.654	0.708	0.0215	0.0688	0.137	0.0306	0.0472	0.0248
first compound 0.25 µg/mL	≥ 1	0.681	0.698	0.0139	0.0497	0.0686	0.0459	0.0297	0.0048
first compound 0.5 µg/mL	0.985	0.721	0.341	0.0205	0.041	0.0366	0.017	0.0245	0.0169

N[C@@H]1CONC1=O [Cycloserine D] + CN(C)C(=O)C(CCN1CCC(O)(c2ccc(Cl)cc2)CC1)(c1ccccc1)c1ccccc1 [Loperamide]
fitness, [1]
Conditions	first compound 0.125 µg/mL	first compound 0.25 µg/mL	first compound 0.5 µg/mL
partner 50 µg/mL	0.0169	0.0651	0.0491
partner 100 µg/mL	0.0259	0.0243	0.0094

N[C@@H]1CONC1=O [Cycloserine D] + CO[C@@H]1[C@@H](OC(N)=O)[C@@H](O)[C@H](Oc2ccc3c(O)c(NC(=O)c4ccc(O)c(CC=C(C)C)c4)c(=O)oc3c2C)OC1(C)C [Novobiocin]
fitness, [1]
Conditions	first compound 0.125 µg/mL	first compound 0.25 µg/mL	first compound 0.5 µg/mL
partner 0.0125 µg/mL	0.987	0.943	0.922
partner 0.025 µg/mL	0.957	0.957	0.913
partner 0.05 µg/mL	≥ 1	0.994	0.992

fitness, [1], one replicate
Conditions	partner 0.1 µg/mL	partner 0.125 µg/mL	partner 0.2 µg/mL	partner 0.25 µg/mL	partner 0.5 µg/mL
first compound 0.125 µg/mL	0.906	0.871	0.921	0.908	0.605
first compound 0.25 µg/mL	0.995	0.962	≥ 1	0.852	0.632
first compound 0.5 µg/mL	≥ 1	0.967	0.952	0.958	0.544

N[C@@H]1CONC1=O [Cycloserine D] + C[C@H]1COc2c(N3CCN(C)CC3)c(F)cc3c(=O)c(C(=O)O)cn1c23 [Levofloxacin]
fitness, [1], one replicate
Conditions	first compound 0.125 µg/mL	first compound 0.25 µg/mL	first compound 0.5 µg/mL
partner 0.001 µg/mL	0.979	0.973	0.987
partner 0.0078 µg/mL	0.898	0.863	0.968

fitness, [1]
Conditions	partner 0.002 µg/mL	partner 0.0039 µg/mL	partner 0.0312 µg/mL	partner 0.0625 µg/mL	partner 0.125 µg/mL
first compound 0.125 µg/mL	0.93	0.92	0.0375	0.0466	0.0546
first compound 0.25 µg/mL	0.921	0.902	0.0356	0.0536	0.0482
first compound 0.5 µg/mL	0.965	0.995	0.0328	0.0466	0.0559

N[C@@H]1CONC1=O [Cycloserine D] + C[C@H]1c2cccc(O)c2C(=O)C2=C(O)[C@]3(O)C(=O)C(C(N)=O)=C(O)[C@@H](N(C)C)[C@@H]3[C@@H](O)[C@@H]21 [Doxycycline]
fitness, [1]
Conditions	first compound 0.125 µg/mL	first compound 0.25 µg/mL	first compound 0.5 µg/mL
partner 0.02 µg/mL	0.909	0.903	0.898
partner 0.04 µg/mL	0.738	0.732	0.709

C[C@@H](O)[C@H]1C(=O)N2C(C(=O)O)=C(SCCNC=N)C[C@H]12 [Imipenem] + CC1=C(C(=O)O)N2C(=O)[C@@H](NC(=O)[C@H](N)c3ccccc3)[C@H]2SC1 [Cephalexin]
fitness, [2], one replicate
Conditions	first compound 0.005 µg/mL	first compound 0.01 µg/mL	first compound 0.02 µg/mL
partner 0.125 µg/mL	0.899	0.909	0.942
partner 0.25 µg/mL	0.874	0.946	0.938
partner 0.5 µg/mL	0.943	0.978	0.95

fitness, [2]
Conditions	first compound 0.0065 µg/mL	first compound 0.013 µg/mL	first compound 0.026 µg/mL
partner 1 µg/mL	0.278	0.4	0.176
partner 2 µg/mL	0.0001	0.0222	0.0128
partner 4 µg/mL	0.0361	0.0148	0.0072

C[C@@H](O)[C@H]1C(=O)N2C(C(=O)O)=C(SCCNC=N)C[C@H]12 [Imipenem] + CO[C@@]12[C@H](COC(N)=O)C3=C(C(=O)C(C)=C(N)C3=O)N1C[C@@H]1N[C@@H]12 [Mitomycin C]
[2]
Conditions	fitness
first compound 0.005 µg/mL, partner 0.001075 µg/mL	0.906
first compound 0.005 µg/mL, partner 0.00215 µg/mL	0.923
first compound 0.005 µg/mL, partner 0.0043 µg/mL	0.815
first compound 0.0065 µg/mL, partner 0.002 µg/mL	0.797
first compound 0.0065 µg/mL, partner 0.004 µg/mL	0.657
first compound 0.01 µg/mL, partner 0.001075 µg/mL	0.921
first compound 0.01 µg/mL, partner 0.00215 µg/mL	0.876
first compound 0.01 µg/mL, partner 0.0043 µg/mL	0.804
first compound 0.013 µg/mL, partner 0.002 µg/mL	0.583
first compound 0.013 µg/mL, partner 0.004 µg/mL	0.731
first compound 0.013 µg/mL, partner 0.008 µg/mL	0.56
first compound 0.02 µg/mL, partner 0.001075 µg/mL	0.937
first compound 0.02 µg/mL, partner 0.00215 µg/mL	0.919
first compound 0.02 µg/mL, partner 0.0043 µg/mL	0.78
first compound 0.026 µg/mL, partner 0.002 µg/mL	0.737
first compound 0.026 µg/mL, partner 0.004 µg/mL	0.668
first compound 0.026 µg/mL, partner 0.008 µg/mL	0.417

O=C1CN(/N=C/c2ccc([N+](=O)[O-])o2)C(=O)N1 [Nitrofurantoin] + CCC(C)C1C(=O)NC(=C)C(=O)NC(C(=O)NC(CSCC(C(=O)N1)NC(=O)/C(=C/C)/NC(=O)C(C(C)CC)N)C(=O)NC2C(SCC(NC(=O)CNC(=O)C3CCCN3C2=O)C(=O)NC(CCCCN)C(=O)NC4C(SCC(NC(=O)CNC(=O)C(NC(=O)C(NC(=O)C(NC(=O)CNC4=O)C)CC(C)C)CCSC)C(=O)NC(CC(=O)N)C(=O)NC(CCSC)C(=O)NC(CCCCN)C(=O)NC5C(SCC6C(=O)NC(C(=O)NC(CSC(C(C(=O)N6)NC(=O)C(NC5=O)C)C)C(=O)NC(CO)C(=O)NC(C(C)CC)C(=O)NC(CC7=CN=CN7)C(=O)NC(C(C)C)C(=O)NC(=C)C(=O)NC(CCCCN)C(=O)O)CC8=CN=CN8)C)C)C)CC(C)C [Nisin]
[2], main component drawn
Conditions	fitness
first compound 1.285 µg/mL, partner 1.6 µg/mL	0.0025
first compound 1.285 µg/mL, partner 3.2 µg/mL	0.0467
first compound 1.285 µg/mL, partner 6.4 µg/mL	0.0134
first compound 2 µg/mL, partner 0.4275 µg/mL	0.988
first compound 2 µg/mL, partner 0.855 µg/mL	0.991
first compound 2 µg/mL, partner 1.71 µg/mL	0.075
first compound 2.57 µg/mL, partner 1.6 µg/mL	0.0197
first compound 2.57 µg/mL, partner 3.2 µg/mL	0.0583
first compound 2.57 µg/mL, partner 6.4 µg/mL	0.0339
first compound 4 µg/mL, partner 0.4275 µg/mL	0.971
first compound 4 µg/mL, partner 0.855 µg/mL	0.993
first compound 4 µg/mL, partner 1.71 µg/mL	0.0559
first compound 8 µg/mL, partner 0.4275 µg/mL	0.85
first compound 8 µg/mL, partner 1.71 µg/mL	0.0537

[2], first compound 5.14 µg/mL, one replicate, main component drawn
Conditions	fitness
partner 1.6 µg/mL	0.0172
partner 3.2 µg/mL	0.0456
partner 6.4 µg/mL	0.0152

C/C(=C\C(=O)OCCCCCCCCC(=O)O)C[C@@H]1OC[C@H](C[C@@H]2O[C@H]2[C@@H](C)[C@H](C)O)[C@@H](O)[C@H]1O [Pseudomonic acid] + CCC(C)C1C(=O)NC(=C)C(=O)NC(C(=O)NC(CSCC(C(=O)N1)NC(=O)/C(=C/C)/NC(=O)C(C(C)CC)N)C(=O)NC2C(SCC(NC(=O)CNC(=O)C3CCCN3C2=O)C(=O)NC(CCCCN)C(=O)NC4C(SCC(NC(=O)CNC(=O)C(NC(=O)C(NC(=O)C(NC(=O)CNC4=O)C)CC(C)C)CCSC)C(=O)NC(CC(=O)N)C(=O)NC(CCSC)C(=O)NC(CCCCN)C(=O)NC5C(SCC6C(=O)NC(C(=O)NC(CSC(C(C(=O)N6)NC(=O)C(NC5=O)C)C)C(=O)NC(CO)C(=O)NC(C(C)CC)C(=O)NC(CC7=CN=CN7)C(=O)NC(C(C)C)C(=O)NC(=C)C(=O)NC(CCCCN)C(=O)O)CC8=CN=CN8)C)C)C)CC(C)C [Nisin]
fitness, [2], main component drawn
Conditions	partner 0.4275 µg/mL	partner 0.855 µg/mL	partner 1.6 µg/mL	partner 1.71 µg/mL	partner 3.2 µg/mL	partner 6.4 µg/mL
first compound 0.03 µg/mL	0.935	0.928	–	0.0945	0.0435	0.0142
first compound 0.06 µg/mL	0.858	0.81	–	0.0658	0.0566	0.0188
first compound 0.12 µg/mL	0.51	0.21	0.174	0.0732	0.0384	0.0513

C/C(=C\C(=O)OCCCCCCCCC(=O)O)C[C@@H]1OC[C@H](C[C@@H]2O[C@H]2[C@@H](C)[C@H](C)O)[C@@H](O)[C@H]1O [Pseudomonic acid] + O=C1CN(/N=C/c2ccc([N+](=O)[O-])o2)C(=O)N1 [Nitrofurantoin]
fitness, [2]
Conditions	partner 1.285 µg/mL	partner 2 µg/mL	partner 2.57 µg/mL	partner 4 µg/mL	partner 8 µg/mL
first compound 0.03 µg/mL	0.916	0.854	0.942	0.872	0.793
first compound 0.06 µg/mL	0.815	0.773	0.819	0.706	0.718
first compound 0.12 µg/mL	0.616	0.563	0.605	0.59	0.515

[2], partner 5.14 µg/mL, one replicate
Conditions	fitness
first compound 0.03 µg/mL	0.912
first compound 0.06 µg/mL	0.8
first compound 0.12 µg/mL	0.556
